The structures appear in SMILES notation.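 Briefly, cells in 96-well plates were exposed to five compound concentrations for 48 h, and endpoints were estimated by linear interpolation. TGI: concentration producing complete growth inhibition.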

Test systems include 786-0 renal; BT-549 breast; COLO 205 colon; HOP-92 NSCLC; MALME-3M melanoma; NCI-H23 lung; NCI-H522 lung; NCI/ADR-RES ovarian; OVCAR-5 ovarian; OVCAR-8 ovarian; RPMI-8226 leukemia; SF-295 CNS; SK-OV-3 ovarian; SNB-19 CNS; SW-620 colon; T-47D breast; UACC-257 melanoma; DU-145 prostate; MOLT-4 leukemia.
Common to all, as to assay: NCI-60 cell line screen, 48 h

For the molecule `Nc1[nH]c(=O)[nH]c(=O)c1Cc1cccc(Cl)c1`, the TGI in the test with 786-0 renal, in the test with BT-549 breast, in the test with COLO 205 colon, in the test with HOP-92 NSCLC, in the test on MALME-3M melanoma and with NCI-H23 lung was greater than 100 µM in each case. Also, the TGI with NCI-H522 lung, in the test with NCI/ADR-RES ovarian, in the test on OVCAR-5 ovarian, in the test on OVCAR-8 ovarian, with RPMI-8226 leukemia and in the test on SF-295 CNS was greater than 100 µM in each case. Also, the TGI with SK-OV-3 ovarian, in the test with SNB-19 CNS, with SW-620 colon, with T-47D breast and with UACC-257 melanoma was greater than 100 µM in each case.

With `C[C@H]1C[C@H]2[C@@H]3CCC4=CC(=O)C=C[C@]4(C)C3=CC[C@]2(C)[C@@]1(O)C(=O)CO`, the TGI in the test on 786-0 renal, in the test with COLO 205 colon, in the test with DU-145 prostate, with HOP-92 NSCLC, with MALME-3M melanoma and with MOLT-4 leukemia was greater than 100 µM each time. Moreover, the TGI with NCI-H23 lung, with NCI-H522 lung, in the test with NCI/ADR-RES ovarian, with OVCAR-5 ovarian, with OVCAR-8 ovarian and in the test on RPMI-8226 leukemia was greater than 100 µM in each case. Further, the TGI in the test with SF-295 CNS, in the test with SK-OV-3 ovarian, in the test with SNB-19 CNS, in the test with T-47D breast and in the test with UACC-257 melanoma was greater than 100 µM in each case.

Regarding `COc1cccc(C(NC2=NCCC=N2)c2cc3c(cc2O)OCO3)c1O` (stereo unspecified), the TGI was 25.6 µM in the test on 786-0 renal; 33.3 µM in the test on BT-549 breast; greater than 100 µM in the test with COLO 205 colon; greater than 100 µM in the test on DU-145 prostate; 77.5 µM in the test with HOP-92 NSCLC; greater than 100 µM in the test with MALME-3M melanoma. Besides, the TGI was 63 µM in the test on MOLT-4 leukemia; greater than 100 µM with NCI-H23 lung; 40.2 µM in the test with NCI-H522 lung; greater than 100 µM in the test on OVCAR-5 ovarian; 25.4 µM in the test on OVCAR-8 ovarian; 50 µM in the test with RPMI-8226 leukemia. The TGI was greater than 100 µM with SF-295 CNS; greater than 100 µM in the test with SK-OV-3 ovarian; greater than 100 µM in the test on SNB-19 CNS; 41.8 µM in the test with SW-620 colon; 63.5 µM with T-47D breast; greater than 100 µM in the test with UACC-257 melanoma.

On to `CCOC(=O)/C=C/C1(CCOC(C)=O)CCCCC1`, for which the TGI in the test with 786-0 renal, in the test on COLO 205 colon, in the test on DU-145 prostate, with HOP-92 NSCLC, in the test on MOLT-4 leukemia and in the test on NCI-H23 lung was greater than 10 µM in each case. Also, the TGI with NCI-H522 lung, with NCI/ADR-RES ovarian, in the test on OVCAR-5 ovarian, with OVCAR-8 ovarian, with RPMI-8226 leukemia and with SF-295 CNS was greater than 10 µM throughout. Also, the TGI with SK-OV-3 ovarian, in the test with SNB-19 CNS, in the test with SW-620 colon, with T-47D breast and in the test with UACC-257 melanoma was greater than 10 µM each time.

Consider `Cc1ccc(/C=C2\Cc3cc(C)c(C)cc3C2=O)c(C(=O)O)c1`, for which the TGI is greater than 100 µM in the test on 786-0 renal; 82.6 µM in the test with BT-549 breast; greater than 100 µM in the test on DU-145 prostate; greater than 100 µM with MALME-3M melanoma; greater than 100 µM with MOLT-4 leukemia; greater than 100 µM in the test with NCI-H522 lung. The TGI with OVCAR-8 ovarian, in the test with RPMI-8226 leukemia, in the test with SF-295 CNS, with SNB-19 CNS, with SW-620 colon and in the test with T-47D breast was greater than 100 µM throughout. The same molecule gave a TGI with UACC-257 melanoma greater than 100 µM.

Take `O/N=C1/CCCc2nonc21`: the TGI in the test with 786-0 renal, in the test with COLO 205 colon, in the test with DU-145 prostate, with HOP-92 NSCLC, in the test with MALME-3M melanoma and with MOLT-4 leukemia was greater than 100 µM in each case. The TGI with NCI-H23 lung, in the test with NCI/ADR-RES ovarian, in the test on OVCAR-5 ovarian, in the test with OVCAR-8 ovarian, in the test on RPMI-8226 leukemia and in the test with SF-295 CNS was greater than 100 µM throughout. Moreover, the TGI in the test on SK-OV-3 ovarian, in the test with SNB-19 CNS, in the test on SW-620 colon, with T-47D breast and in the test with UACC-257 melanoma was greater than 100 µM throughout.

Regarding `CSc1nc2c3ccccc3ccn2c1C(=O)N/N=C/c1ccccc1`, the TGI was 42.3 µM in the test on 786-0 renal; greater than 100 µM in the test on COLO 205 colon; greater than 100 µM with DU-145 prostate; greater than 33.8 µM in the test on HOP-92 NSCLC; greater than 95.1 µM in the test with MALME-3M melanoma; greater than 100 µM in the test with MOLT-4 leukemia. For the same molecule, the TGI with NCI-H23 lung is greater than 100 µM; in the test on NCI-H522 lung it was greater than 100 µM; in the test on NCI/ADR-RES ovarian, greater than 71.9 µM; with OVCAR-5 ovarian, greater than 100 µM; in the test on OVCAR-8 ovarian, 44.7 µM; with RPMI-8226 leukemia, greater than 100 µM. Besides, the TGI was greater than 72.4 µM with SF-295 CNS; 43.7 µM in the test on SK-OV-3 ovarian; greater than 100 µM with SW-620 colon; greater than 90.2 µM in the test on T-47D breast; greater than 100 µM with UACC-257 melanoma.

Source of the values: PubChem BioAssay (NCI).
